US20240068044A1, “MARKER COMPOSITION FOR PREDICTING PROGNOSIS OF CANCER, METHOD FOR PROGNOSIS OF CANCER AND METHOD FOR PROVIDING INFORMATION FOR DETERMINING STRATEGY OF CANCER TREATMENT” (priority 2021, published 2024)

Tested on: gastric cancer patients
Assay: Multivariable Cox proportional analysis of overall survival: adjuvant chemotherapy vs surgery only, Yonsei cohort, within each molecular subtype
Format: in vivo
Conditions: multivariate Cox
Text: It has been examined whether the molecular subtype of the present disclosure may predict the response to the systemic therapy. The Yonsei cohort included patients treated prior to establishment of adjuvant chemotherapy as standard of care. Thus, patients who have been treated with one of the following three assisted chemical therapy methods were able to compare patients who have undergone surgery only:
5-Fluorouracil (5-FU) Alone Therapy
5-FU and Platinum Doublet
Treatment of Systemic Therapy of Another Class in Addition to 5-FU
The inventors of the present disclosure performed a multivariable Cox proportional analysis of the overall survival rate, assisted chemical therapy, cancer operation, age, lymphovascular attack and perineuronal attack as covariates within each genetic group.
In Table 3, the hazard ratio (HR) was calculated using age, cancer stage, Lauren type, neural surrounding invasion state, and chemotherapy treatment as a regulator.

## O=c1[nH]cc(F)c(=O)[nH]1 [5-FU alone, 5-Fluorouracil]
Patient Group 1, VS no-chemotherapy
  Hazard Ratio (95% CI): 2.25 (0.61, 8.35)
Patient Group 2, VS no-chemotherapy
  Hazard Ratio (95% CI): 0.37 (0.14, 0.99)
Patient Group 2, VS no-chemotherapy, listed as 5-FU monotherapy
  Hazard Ratio (95% CI): 0.37
Patient Group 3, VS no-chemotherapy
  Hazard Ratio (95% CI): 0.99 (0.41, 2.38)
Patient Group 4, VS no-chemotherapy
  Hazard Ratio (95% CI): 0.73 (0.30, 1.79)
